Active and inactive are the calls of the source. The calls are words filed in the database; no cut-off is given here.
Columns and labels:
SW1990 [1] = assay: Antiproliferative activity against human SW1990 cells assessed as inhibition cell proliferation incubated for 6 days by MTT assay; format: functional, cell-based; settings: SW1990, 144 h
CAKI-1 = assay: Antiproliferative activity against human CAKI-1 cells assessed as inhibition cell proliferation incubated for 6 days by MTT assay; format: functional, cell-based; settings: CAKI-1, 144 h
SW1990 [2] = assay: Potency index, ratio of DCLK1-IN-1 IC50 to test compound IC50 for human SW1990 cells assessed as inhibition cell proliferation incubated for 6 days by MTT assay; format: functional; settings: time 6 day
SW1990 [3] = assay: Induction of apoptosis in human SW1990 cells assessed as viable cells at 0.5 uM incubated for 6 days by Annexin V/PI staining based flow cytometry (reference value: 92.93 %); format: functional; settings: SW1990, 144 h, time 6 day, read-out: Activity
SW1990 [4] = assay: Induction of apoptosis in human SW1990 cells assessed as early apoptotic cells at 0.5 uM incubated for 6 days by Annexin V/PI staining based flow cytometry (reference value: 4.55 %); format: functional; settings: time 6 day
SW1990 [5] = assay: Induction of apoptosis in human SW1990 cells assessed as late apoptotic cells at 0.5 uM incubated for 6 days by Annexin V/PI staining based flow cytometry (reference value: 2.01 %); format: functional; settings: time 6 day
SW1990 [6] = assay: Induction of apoptosis in human SW1990 cells assessed as necrotic cells at 0.5 uM incubated for 6 days by Annexin V/PI staining based flow cytometry (reference value: 0.50 %); format: functional; settings: time 6 day
SW1990 [7] = assay: Induction of apoptosis in human SW1990 cells assessed as viable cells at 1 uM incubated for 6 days by Annexin V/PI staining based flow cytometry (reference value: 92.93 %); format: functional; settings: SW1990, 144 h, time 6 day, read-out: Activity
SW1990 [8] = assay: Induction of apoptosis in human SW1990 cells assessed as early apoptotic cells at 1 uM incubated for 6 days by Annexin V/PI staining based flow cytometry (reference value: 4.55 %); format: functional; settings: time 6 day
SW1990 [9] = assay: Induction of apoptosis in human SW1990 cells assessed as late apoptotic cells at 1 uM incubated for 6 days by Annexin V/PI staining based flow cytometry (reference value: 2.01 %); format: functional; settings: time 6 day
SW1990 [10] = assay: Induction of apoptosis in human SW1990 cells assessed as necrotic cells at 1 uM incubated for 6 days by Annexin V/PI staining based flow cytometry (reference value: 0.50 %); format: functional; settings: time 6 day
SW1990 [11] = assay: Induction of apoptosis in human SW1990 cells assessed as late apoptotic cells at 2 uM incubated for 6 days by Annexin V/PI staining based flow cytometry (reference value: 2.01 %); format: functional; settings: time 6 day
SW1990 [12] = assay: Induction of apoptosis in human SW1990 cells assessed as necrotic cells at 2 uM incubated for 6 days by Annexin V/PI staining based flow cytometry (reference value: 0.50 %); format: functional; settings: time 6 day
SW1990 [13] = assay: Induction of cell cycle arrest at S phase in human SW1990 cells at 0.5 uM incubated for 6 days by PI staining based flow cytometry (reference value: 21.20 %); format: functional; settings: time 6 day
SW1990 [14] = assay: Induction of cell cycle arrest at G2/M phase in human SW1990 cells at 0.5 uM incubated for 6 days by PI staining based flow cytometry (reference value: 29.15 %); format: functional; settings: time 6 day
SW1990 [15] = assay: Induction of cell cycle arrest at G0/G1 phase in human SW1990 cells at 1 uM incubated for 6 days by PI staining based flow cytometry (reference value: 49.65 %); format: functional; settings: time 6 day
SW1990 [16] = assay: Induction of cell cycle arrest at G2/M phase in human SW1990 cells at 1 uM incubated for 6 days by PI staining based flow cytometry (reference value: 29.15 %); format: functional; settings: time 6 day
SW1990 [17] = assay: Induction of cell cycle arrest at G0/G1 phase in human SW1990 cells at 2 uM incubated for 6 days by PI staining based flow cytometry (reference value: 49.65 %); format: functional; settings: time 6 day
SW1990 [18] = assay: Induction of cell cycle arrest at S phase in human SW1990 cells at 2 uM incubated for 6 days by PI staining based flow cytometry (reference value: 21.20 %); format: functional; settings: time 6 day
SW1990 [19] = assay: Induction of cell cycle arrest at G2/M phase in human SW1990 cells at 2 uM incubated for 6 days by PI staining based flow cytometry (reference value: 29.15 %); format: functional; settings: time 6 day
SW1990 [20] = assay: Inhibition of cell invasion in human SW1990 cells at 0.5 to 2 uM by transwell assay; format: functional, cell-based; settings: dose 0.5-2 µM
SW1990 [21] = assay: Inhibition of cell migration in human SW1990 cells at 0.5 to 2 uM by transwell assay; format: functional, cell-based; settings: dose 0.5-2 µM
SW1990 [22] = assay: Downregulation of N-cadherin level in human SW1990 cells at 0.5 to 2 uM by Western blot analysis; format: functional, cell-based; settings: dose 0.5-2 µM
SW1990 [23] = assay: Antitumor activity in human SW1990 cells assessed as decrease in CD133 level at 0.5 to 2 uM by immunofluorescence based analysis; format: functional, cell-based; settings: dose 0.5-2 µM
SW1990 [24] = assay: Antitumor activity in human SW1990 cells assessed as decrease in CD44 level at 0.5 to 2 uM by immunofluorescence based analysis; format: functional, cell-based; settings: dose 0.5-2 µM
[25] = Metabolic stability in mouse liver microsomes assessed as intrinsic clearance at 1 uM preincubated for 10 mins followed by NADPH measured for 60 mins by LC-MS/MS analysis; format: ADME, Microsome; settings: time 70 min, read-out: CLH
SW1990 [26] = assay: Antitumor activity against human SW1990 cells xenografted in BALB/c nude mouse model assessed as tumor growth inhibition treated intraperitoneally for 21 days consecutively; format: functional; settings: dose 30-60 mg/kg, route ip, time 21.0 day
[27] = Toxicity in BALB/c nude mouse xenografted with human SW1990 cells assessed as animal mortality at 30 to 60 mg/kg, ip for 21 days consecutively; format: organism-based; settings: in vivo, 504 h, dose 30-60 mg/kg, time 21 day
[28] = Toxicity in BALB/c nude mouse xenografted with human SW1990 cells assessed as change in body weight at 30 to 60 mg/kg, ip for 21 days consecutively; format: organism-based; settings: in vivo, 504 h, dose 30-60 mg/kg, time 21 day
SW1990 [29] = assay: Antitumor activity against human SW1990 cells xenografted in BALB/c nude mouse model assessed as change in agglutination treated intraperitoneally for 21 days consecutively by H and E staining based analysis; format: functional; settings: dose 30-60 mg/kg, route ip, time 21.0 day
SW1990 [30] = assay: Antitumor activity against human SW1990 cells xenografted in BALB/c nude mouse model assessed as change in nuclear chromatin marginalization treated intraperitoneally for 21 days consecutively by H and E staining based analysis; format: functional; settings: dose 30-60 mg/kg, route ip, time 21.0 day
SW1990 [31] = assay: Antitumor activity against human SW1990 cells xenografted in BALB/c nude mouse model assessed as decrease in N-cadherin level at 30 to 60 mg/kg, ip for 21 days consecutively by Western blot analysis; format: functional, organism-based; settings: dose 30-60 mg/kg, time 21.0 day
SW1990 [32] = assay: Antitumor activity against human SW1990 cells xenografted in BALB/c nude mouse model assessed as decrease in Snail level at 30 to 60 mg/kg, ip for 21 days consecutively by Western blot analysis; format: functional, organism-based; settings: dose 30-60 mg/kg, time 21.0 day
SW1990 [33] = assay: Antitumor activity against human SW1990 cells xenografted in BALB/c nude mouse model assessed as increase in E-cadherin level at 30 to 60 mg/kg, ip for 21 days consecutively by Western blot analysis; format: functional, organism-based; settings: dose 30-60 mg/kg, time 21.0 day
SW1990 [34] = assay: Antitumor activity against human SW1990 cells xenografted in BALB/c nude mouse model assessed as decrease in CD44 level at 30 to 60 mg/kg, ip for 21 days consecutively by IHC analysis; format: functional, organism-based; settings: dose 30-60 mg/kg, time 21.0 day

## COc1cc(N2CCN(C)CC2)ccc1Nc1nc(Nc2ccccc2S(=O)(=O)C(C)C)c2nc[nH]c2n1
SW1990 [1]
  IC50: 0.6 µM
CAKI-1
  IC50: 10.1 µM
SW1990 [2]
  Ratio IC50: 22
SW1990 [3]
  viability at 0.5 µM: 78.5%
SW1990 [4]
  Activity: 9.19%
SW1990 [5]
  Activity: 6.77%
SW1990 [6]
  Activity: 5.58%
SW1990 [7]
  viability at 1 µM: 65.3%
SW1990 [8]
  Activity: 19.46%
SW1990 [9]
  Activity: 7.06%
SW1990 [10]
  Activity: 8.2%
SW1990 [11]
  Activity: 11.39%
SW1990 [12]
  Activity: 5.86%
SW1990 [13]
  Activity: 19.66%
SW1990 [14]
  Activity: 27.55%
SW1990 [15]
  Activity: 56.78%
SW1990 [16]
  Activity: 23.47%
SW1990 [17]
  Activity: 63.14%
SW1990 [18]
  Activity: 14.23%
SW1990 [19]
  Activity: 22.63%
SW1990 [20]
  inhibition: Active
SW1990 [21]
  inhibition: Active
SW1990 [22]
  Activity: Active
SW1990 [23]
  Activity: Active
SW1990 [24]
  Activity: Active
[25]
  CLint scaled at 1 µM: 120 mL/min/kg
  microsomal CLint at 1 µM: 30.2 µL/min/mg
SW1990 [26]
  inhibition: Dose-Dependent Effect
[27]
  Activity: Non-Toxic
[28]
  Activity: Toxic
SW1990 [29]
  Activity: Dose-Dependent Effect
SW1990 [30]
  Activity: Dose-Dependent Effect
SW1990 [31]
  Activity: Active
SW1990 [32]
  Activity: Active
SW1990 [33]
  Activity: Active
SW1990 [34]
  Activity: Active
